Consider 25 compounds from PubChem BioAssay AID330 (DTP/NCI, 2004).

Several values for one entry are separate records, joined by “and”; a condition that tells them apart may be missing. Equal entries are not always repeated. Toxic doses and inconclusive results are not listed.

This assay deals with P388 leukemia ip, CD2F1 mice, survival T/C. As to the kind of experiment: NCI In Vivo Anticancer Drug Screen. Data for tumor model P388 Leukemia (intraperitoneal) in CD2F1 (CDF1) mice. The note with it: endpoint: median survival time, higher = longer survival. The method, boiled down: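 Mice carrying the transplanted tumor received test compound or vehicle. Survival was recorded in each group, and the value is the treated-group measurement divided by that of the vehicle-treated control group.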

Setting [1] is: dose: 6.25 mg/kg/injection, schedule: Q01DX009 (ip), vehicle: Klucel (hydroxypropylcellulose) (HPC).
Where [2] appears, read: dose: 12.5 mg/kg/injection, schedule: Q01DX009 (ip), vehicle: Klucel (hydroxypropylcellulose) (HPC).
Setting [3] is: dose: 25.0 mg/kg/injection, schedule: Q01DX009 (ip), vehicle: Klucel (hydroxypropylcellulose) (HPC).
[4] abbreviates: dose: 100.0 mg/kg/injection, schedule: Q04DX003 (ip), vehicle: saline with Tween-80.
The mark [5] stands for this setting: dose: 200.0 mg/kg/injection, schedule: Q04DX003 (ip), vehicle: saline with Tween-80.
Setting [6] is: dose: 50.0 mg/kg/injection, schedule: Q01DX009 (ip), vehicle: Klucel (hydroxypropylcellulose) (HPC).
Setting [7] is: dose: 100.0 mg/kg/injection, schedule: Q01DX009 (ip), vehicle: Klucel (hydroxypropylcellulose) (HPC).
Where [8] appears, read: dose: 200.0 mg/kg/injection, schedule: Q01DX009 (ip), vehicle: Klucel (hydroxypropylcellulose) (HPC).
Setting [9] is: dose: 25.0 mg/kg/injection, schedule: Q01DX005 (ip), vehicle: Klucel (hydroxypropylcellulose) (HPC).
[10] abbreviates: dose: 50.0 mg/kg/injection, schedule: Q01DX005 (ip), vehicle: Klucel (hydroxypropylcellulose) (HPC).
The mark [11] stands for this setting: dose: 50.0 mg/kg/injection, schedule: Q01DX009 (ip), vehicle: saline with Tween-80.
The mark [12] stands for this setting: dose: 100.0 mg/kg/injection, schedule: Q01DX009 (ip), vehicle: saline with Tween-80.
Setting [13] is: dose: 200.0 mg/kg/injection, schedule: Q01DX009 (ip), vehicle: saline with Tween-80.
[14] abbreviates: dose: 25.0 mg/kg/injection, schedule: Q01DX009 (ip), vehicle: saline with Tween-80.
The mark [15] stands for this setting: dose: 50.0 mg/kg/injection, schedule: Q04DX003 (ip), vehicle: saline with Tween-80.
Setting [16] is: dose: 100.0 mg/kg/injection, schedule: Q04DX003 (ip), vehicle: Klucel (hydroxypropylcellulose) (HPC).
[17] abbreviates: dose: 200.0 mg/kg/injection, schedule: Q04DX003 (ip), vehicle: Klucel (hydroxypropylcellulose) (HPC).
Setting [18] is: dose: 400.0 mg/kg/injection, schedule: Q04DX003 (ip), vehicle: Klucel (hydroxypropylcellulose) (HPC).
[19] abbreviates: dose: 50.0 mg/kg/injection, schedule: Q01DX009 (ip), vehicle: saline.
[20] abbreviates: dose: 100.0 mg/kg/injection, schedule: Q01DX009 (ip), vehicle: saline.
Setting [21] is: dose: 200.0 mg/kg/injection, schedule: Q01DX009 (ip), vehicle: saline.

As to `NC1=C(O)C(=O)C(c2cccnc2)O1` (stereo not given), the T/C is, setting by setting: (dose: 30.0 mg/kg/injection, schedule: Q01DX005 (ip), vehicle: Klucel (hydroxypropylcellulose) (HPC)) 102 % of control; (dose: 60.0 mg/kg/injection, schedule: Q01DX005 (ip), vehicle: Klucel (hydroxypropylcellulose) (HPC)) 96 % of control; (dose: 120.0 mg/kg/injection, schedule: Q01DX005 (ip), vehicle: Klucel (hydroxypropylcellulose) (HPC)) 86 % of control and 93 % of control; (dose: 240.0 mg/kg/injection, schedule: Q01DX005 (ip), vehicle: Klucel (hydroxypropylcellulose) (HPC)) 86 % of control.
For `Cn1c2cc([N+](=O)[O-])ccc2c(=O)c2c(O)cc(O)cc21`, the T/C is 101 % of control (dose: 100.0 mg/kg/injection, schedule: Q01DX001 (ip), vehicle: saline with Tween-80); 92 % of control (dose: 200.0 mg/kg/injection, schedule: Q01DX001 (ip), vehicle: saline with Tween-80); 104 % of control (dose: 400.0 mg/kg/injection, schedule: Q01DX001 (ip), vehicle: saline with Tween-80).
Take `Cc1cc(NC(=O)NCCOc2ccc(N3C(N)=NC(N)=NC3(C)C)cc2Cl)ccc1S(=O)(=O)F`: the T/C is 100 % of control (dose: 12.5 mg/kg/injection, schedule: Q04DX003 (ip), vehicle: saline sonified); 100 % of control (dose: 25.0 mg/kg/injection, schedule: Q04DX003 (ip), vehicle: saline sonified); 100 % of control (dose: 50.0 mg/kg/injection, schedule: Q04DX003 (ip), vehicle: saline sonified).
Take `NC(=NCCCCCCN=C(N)[N+](=O)[O-])N[N+](=O)[O-]`: the T/C runs as follows: under setting [1], 113 % of control and 123 % of control; under setting [2], 105 % of control and 106 % of control; under setting [3], 99 % of control and 106 % of control.
`CCOC(=O)C(Cc1c[nH]c2ccccc12)(NC(C)=O)C(=O)OCC`: the T/C under setting [4] was 100 % of control; the T/C under setting [5] is 100 % of control; the T/C (dose: 400.0 mg/kg/injection, schedule: Q04DX003 (ip), vehicle: saline with Tween-80) is 100 % of control.
Turning to `Cc1cc(C(C)(C)C)ccc1SP(Sc1ccc(C(C)(C)C)cc1C)Sc1ccc(C(C)(C)C)cc1C`, the T/C was 100 % of control under setting [6], 92 % of control under setting [7] and 92 % of control under setting [8].
`CCOc1ccc(N=C([Se])CC)cc1`: the T/C by setting is: under setting [1], 109 % of control; under setting [2], 102 % of control; under setting [3], 92 % of control.
Turning to `CCOc1cccc(/C=C2/C(=O)N(Cc3ccco3)SC2=S)c1O`, the T/C by setting is: (dose: 3.12 mg/kg/injection, schedule: Q01DX009 (ip), vehicle: Klucel (hydroxypropylcellulose) (HPC)) 93 % of control; under setting [1], 93 % of control; under setting [2], 93 % of control and 94 % of control; under setting [3], 98 % of control.
For the compound `CC(=O)OC1NC(=O)C(OC(C)=O)NC1=O` (stereo not given), the T/C reads like this: under setting [9], 100 % of control; under setting [10], 98 % of control and 102 % of control (2×); (dose: 100.0 mg/kg/injection, schedule: Q01DX005 (ip), vehicle: Klucel (hydroxypropylcellulose) (HPC)) 101 % of control (2×) and 120 % of control; (dose: 200.0 mg/kg/injection, schedule: Q01DX005 (ip), vehicle: Klucel (hydroxypropylcellulose) (HPC)) 102 % of control and 107 % of control and 110 % of control.
In the case of `Cc1ccc(S(=O)(=O)Nc2ccccc2OCCN(CCOc2ccccc2NS(=O)(=O)c2ccc(C)cc2)S(=O)(=O)c2ccc(C)cc2)cc1`, the T/C by setting is: under setting [11], 96 % of control; under setting [12], 99 % of control; under setting [13], 93 % of control.
As for `COc1cc(N(CC(C)Br)CC(C)Br)ccc1N=Nc1ccccc1C(=O)O` (stereo not given), the T/C is, setting by setting: (dose: 1.56 mg/kg/injection, schedule: Q01DX009 (ip), vehicle: saline with Tween-80) 164 % of control; (dose: 3.12 mg/kg/injection, schedule: Q01DX009 (ip), vehicle: saline with Tween-80) 160 % of control and 169 % of control.
On to `CC(C)([NH-])CO.CC(C)([NH-])CO.[Cl][Cd][Cl]`, for which the T/C by setting is: (dose: 3.13 mg/kg/injection, schedule: Q01DX009 (ip), vehicle: saline) 91 % of control; (dose: 6.25 mg/kg/injection, schedule: Q01DX009 (ip), vehicle: saline) 91 % of control.
As for `C[N+]1(CSc2ccccc2)CCCCC1`, the T/C (dose: 12.5 mg/kg/injection, schedule: Q01DX009 (ip), vehicle: saline with Tween-80) was 100 % of control and the T/C under setting [14] is 98 % of control.
Regarding `C=C(C)CC1(CC)C(=O)NC(=S)NC1=O`, the T/C is 104 % of control under setting [15], 104 % of control under setting [4] and 86 % of control under setting [5].
On to `CSc1cccc(NC(=O)N2CCN(C)CC2)c1`, for which the T/C is, setting by setting: under setting [6], 89 % of control; under setting [7], 91 % of control; under setting [8], 94 % of control.
For the compound `Cc1ccc(-n2nc(C)c3c(N)nc(N)nc32)c(Cl)c1`, the T/C is 101 % of control under setting [16], 101 % of control under setting [17] and 103 % of control under setting [18].
Turning to `CC(C)CC(=O)CC(=O)CCC(=O)Nc1ccc(Cl)cc1Cl`, the T/C runs as follows: (dose: 60.0 mg/kg/injection, schedule: Q01DX005 (ip), vehicle: saline with Tween-80) 100 % of control; (dose: 120.0 mg/kg/injection, schedule: Q01DX005 (ip), vehicle: saline with Tween-80) 108 % of control; (dose: 240.0 mg/kg/injection, schedule: Q01DX005 (ip), vehicle: saline with Tween-80) 100 % of control.
Consider `O=S(=O)(Cc1ccccc1)Oc1ccccc1`, for which the T/C is, setting by setting: under setting [16], 109 % of control; under setting [17], 103 % of control; under setting [18], 94 % of control.
Turning to `CCCCCCCCCCOC(=O)CC(C)=O.CCCCCCCCCCOC(=O)CC(C)=O.[Ni+2]`, the T/C is 98 % of control (dose: 12.5 mg/kg/injection, schedule: Q01DX009 (ip), vehicle: saline); 100 % of control (dose: 25.0 mg/kg/injection, schedule: Q01DX009 (ip), vehicle: saline); 98 % of control and 91 % of control under setting [19]; 86 % of control under setting [20].
As for `CN(C)c1ccc(/C=C/c2cc[n+](C)c(/C=C/c3ccc(N(C)C)cc3)c2)cc1`, the T/C by setting is: (dose: 0.78 mg/kg/injection, schedule: Q01DX005 (ip), vehicle: saline) 115 % of control; (dose: 1.56 mg/kg/injection, schedule: Q01DX005 (ip), vehicle: saline) 119 % of control.
On to `N#CCCS(=O)(=O)c1ccc(Cl)cc1`, for which the T/C by setting is: under setting [19], 99 % of control; under setting [20], 100 % of control; under setting [21], 100 % of control.
`Cc1ccccc1CN1C2=NCCN2C(=O)C2=C1CCN(S(=O)(=O)c1ccc(Cl)c(S(N)(=O)=O)c1)C2`: the T/C is 96 % of control under setting [19], 97 % of control under setting [20] and 90 % of control under setting [21].
`Cc1cc(C)[nH]n1`: the T/C is, setting by setting: under setting [12], 110 % of control; under setting [13], 105 % of control; (dose: 400.0 mg/kg/injection, schedule: Q01DX009 (ip), vehicle: saline with Tween-80) 120 % of control.
Regarding `C[C@]12CCC(=O)C(O)=C1CC[C@@H]1[C@@H]2CC[C@@]2(C)[C@H]1CC[C@]2(C)O`, the T/C was 92 % of control under setting [14]; 100 % of control (dose: 25.0 mg/kg/injection, schedule: Q04DX003 (ip), vehicle: saline with Tween-80); 100 % of control under setting [11]; 105 % of control under setting [15]; 98 % of control under setting [12]; 101 % of control under setting [4]. For the same compound, the T/C under setting [13] was 101 % of control and the T/C under setting [5] was 105 % of control.
Take `CCCc1cc(=O)n(-c2ccc([N+](=O)[O-])cn2)c(=S)[nH]1`: the T/C was 95 % of control (dose: 12.5 mg/kg/injection, schedule: Q01DX005 (ip), vehicle: Klucel (hydroxypropylcellulose) (HPC)); 106 % of control under setting [9]; 101 % of control and 116 % of control under setting [10].
